# US20230174484A1, “ANTAGONISTS OF GPR39 PROTEIN” (Oregon Health & Science University, priority 2020, published 2023)
# Biological target: T1, human GPR39 receptor (Homo sapiens, UniProt O43194)
# T1 construct: PC3 Cells, Expressing the Endogenous Human GPR39 Receptor; endogenous in cells; host or cells: PC3 (human prostate adenocarcinoma) cells
# T1 sequence (O43194 1-453): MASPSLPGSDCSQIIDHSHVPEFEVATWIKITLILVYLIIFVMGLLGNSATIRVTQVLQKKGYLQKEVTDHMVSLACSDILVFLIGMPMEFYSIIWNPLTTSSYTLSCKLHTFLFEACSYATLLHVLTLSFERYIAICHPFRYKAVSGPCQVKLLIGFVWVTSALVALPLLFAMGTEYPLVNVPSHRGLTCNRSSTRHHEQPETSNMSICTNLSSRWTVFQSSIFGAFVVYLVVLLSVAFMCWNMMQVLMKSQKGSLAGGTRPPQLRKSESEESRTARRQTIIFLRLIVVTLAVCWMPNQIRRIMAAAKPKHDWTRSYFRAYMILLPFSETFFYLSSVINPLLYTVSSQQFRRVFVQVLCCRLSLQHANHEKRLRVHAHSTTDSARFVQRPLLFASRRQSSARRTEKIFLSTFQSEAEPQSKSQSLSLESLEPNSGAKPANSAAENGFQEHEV
# Assay: Measurement of intracellular calcium response in PC3 cells (FLIPR), antagonism of the C3 agonist response
# Format: cell-based
# Conditions: functional pKi (modified Cheng-Prusoff), inhibition of the C3 (TC-G 1008) response at EC90, 30 μM ZnCl2, read-out: fpKi activity
# Outline: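 Potency was reported as fpKi, converted by modified Cheng-Prusoff from four-parameter IC50 fits against an EC90 C3 agonist challenge. Calcium-6 FLIPR readings used PC3 cells naturally expressing human GPR39, in pH 7.4 HEPES buffer containing 30 μM final ZnCl2. Score bands: +/± <5.2, + 5.2–5.9, ++ 6.0–6.5, +++ 6.6–7.2, ++++ ≥7.3.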
row,SMILES,Ki [nM]
1,"CC1CN(C)CCN1C(=O)c1ccc(NC(=O)C2CC2)cc1N1CCCCCC1 (stereo not drawn) [Example 37, N-[3-(azepan-1-yl)-4-(2,4-dimethylpiperazine-1-carbonyl)phenyl]cyclopropanecarboxamide]",316 to 1000
2,"O=C(Nc1ccc(C(=O)N2CCC(C(F)(F)F)CC2)c(N2CCCCCC2)c1)C1CC1 [Example 38, N-(3-(azepan-1-yl)-4-(4-(trifluoromethyl)piperidine-1-carbonyl)phenyl) cyclopropanecarboxamide]",63.1 to 251
3,O=C(Nc1ccc(C(=O)N2CCn3c(nnc3C(F)(F)F)C2)c(N2CCCCCC2)c1)C1CC1 [Example 41],1260 to 6310
4,"O=C(NCc1ccccn1)c1ccc(NC(=O)C2CC2)cc1N1CCCCCC1 [Example 42, 2-(azepan-1-yl)-4-cyclopropaneamido-N-[(pyridin-2-yl)methyl]benzamide]",316 to 1000
5,"O=C(NCc1ccccc1)c1ccc(NC(=O)C2CC2)cc1N1CCCCCC1 [Example 43, 2-(azepan-1-yl)-N-benzyl-4-cyclopropaneamidobenzamide]",316 to 1000
6,"CCCC1CCN(C(=O)c2ccc(NC(=O)C3CC3)cc2N2CCCCCC2)CC1 [Example 47, N-(3-(azepan-1-yl)-4-(4-propylpiperidine-1-carbonyl)phenyl)cyclopropanecarboxamide]",63.1 to 251
7,"CCOC1CCN(C(=O)c2ccc(NC(=O)C3CC3)cc2N2CCCCCC2)CC1 [Example 48, N-(3-(azepan-1-yl)-4-(4-ethoxypiperidine-1-carbonyl)phenyl)cyclopropanecarboxamide]",316 to 1000
8,"O=C(Nc1ccc(C(=O)N2CCCCC2c2nnnn2Cc2ccccc2)c(N2CCCCCC2)c1)C1CC1 (stereo not drawn) [Example 54, N-[3-(azepan-1-yl)-4-[2-(1-benzyltetrazol-5-yl)piperidine-1-carbonyl]phenyl]cyclopropanecarboxamide]",63.1 to 251
9,"CN1CCN(c2ccc(CNC(=O)c3ccc(NC(=O)C4CC4)cc3N3CCCCCC3)cc2)CC1 [Example 56, 2-(azepan-1-yl)-4-(cyclopropanecarbonylamino)-N-[[4-(4-methylpiperazin-1-yl)phenyl]methyl]benzamide]",1260 to 6310
10,"O=C(Nc1ccc(C(=O)N2CCSCC2c2ccccc2)c(N2CCCC2)c1)C1CC1 (stereo not drawn) [Example 58, N-[4-(3-phenylthiomorpholine-4-carbonyl)-3-pyrrolidin-1-ylphenyl]cyclopropanecarboxamide]",63.1 to 251
11,"O=C(Nc1ccc(C(=O)N2CCC(F)(F)CC2)c(N2CCCC2)c1)C1CC1 [Example 59, N-[4-(4,4-difluoropiperidine-1-carbonyl)-3-pyrrolidin-1-ylphenyl]cyclopropanecarboxamide]",63.1 to 251
12,"O=C(Nc1ccc(C(=O)N2CCS(=O)(=O)CC2)c(N2CCCC2)c1)C1CC1 [Example 60, N-[4-(1,1-dioxo-1,4-thiazinane-4-carbonyl)-3-pyrrolidin-1-ylphenyl] Cyclopropanecarboxamide]",63.1 to 251
13,"O=C(Nc1ccc(C(=O)N2CCC(C(F)(F)F)CC2)c(N2CCCC2)c1)C1CC1 [Example 61, N-[3-pyrrolidin-1-yl-4-[4-(trifluoromethyl)piperidine-1-carbonyl]phenyl]cyclopropanecarboxamide]",63.1 to 251
14,"O=C(Nc1ccc(C(=O)N2CCS(=O)(=O)CC2)c(N2CCC3(CCC3)C2)c1)C1CC1 [Example 65, N-[3-(6-azaspiro[3.4]octan-6-yl)-4-(1,1-dioxo-1,4-thiazinane-4-carbonyl)phenyl]cyclopropanecarboxamide]",≤ 50.1
15,"C[C@@H]1C[C@H](C)CN(c2cc(NC(=O)C3CC3)ccc2C(=O)N2CCS(=O)(=O)CC2)C1 [Example 67, Syn N-[3-[-3,5-dimethylpiperidin-1-yl]-4-(1,1-dioxo-1,4-thiazinane-4-carbonyl)phenyl]Cyclopropanecarboxamide]",≤ 50.1
16,"CN1CCN(C(=O)c2ccc(NC(=O)C3CC3)cc2N2CCCCCC2)C(c2ccccn2)C1 (stereo not drawn) [Example 74, N-[3-(azepan-1-yl)-4-(4-methyl-2-pyridin-2-ylpiperazine-1-carbonyl)phenyl]cyclopropanecarboxamide]",1260 to 6310

# Now from value to compound:
row,Ki [nM],SMILES
1,63.1 to 251,"O=C(Nc1ccc(C(=O)N2CCN(Cc3ccccc3F)CC2)c(N2CCCCCC2)c1)C1CC1 [Example 28, N-(3-(azepan-1-yl)-4-(4-(2-fluorobenzyl)piperazine-1-carbonyl)phenyl) Cyclopropanecarboxamide]"
2,63.1 to 251,"O=C(Nc1ccc(C(=O)N2CCN(Cc3ccc(F)cc3)CC2)c(N2CCCCCC2)c1)C1CC1 [Example 29, N-(3-(azepan-1-yl)-4-(4-(4-fluorobenzyl)piperazine-1-carbonyl)phenyl) Cyclopropanecarboxamide]"
3,316 to 1000,"COc1ccc(CN2CCN(C(=O)c3ccc(NC(=O)C4CC4)cc3N3CCCCCC3)CC2)cc1 [Example 30, N-(3-(azepan-1-yl)-4-(4-(4-methoxybenzyl)piperazine-1-carbonyl)phenyl) cyclopropanecarboxamide]"
4,316 to 1000,"O=C(Nc1ccc(C(=O)N2CCN(Cc3ccccc3Cl)CC2)c(N2CCCCCC2)c1)C1CC1 [Example 31, N-(3-(azepan-1-yl)-4-(4-(2-chlorobenzyl)piperazine-1-carbonyl)phenyl) Cyclopropanecarboxamide]"
5,316 to 1000,"O=C(Nc1ccc(C(=O)N2CCN(Cc3cccnc3)CC2)c(N2CCCCCC2)c1)C1CC1 [Example 32, N-(3-(azepan-1-yl)-4-(4-(pyridin-3-ylmethyl)piperazine-1-carbonyl)phenyl)cyclopropanecarboxamide]"
6,1260 to 6310,"O=C(Nc1ccc(C(=O)N2CCN(c3nccc4ccsc34)CC2)c(N2CCCCCC2)c1)C1CC1 [Example 33, N-[3-(azepan-1-yl)-4-(4-thieno[2,3-c]pyridin-7-ylpiperazine-1-carbonyl)phenyl]Cyclopropanecarboxamide]"
7,63.1 to 251,"O=C(Nc1ccc(C(=O)N2CCCCC2)c(N2CCCCCC2)c1)C1CC1 [Example 35, N-(3-(azepan-1-yl)-4-(piperidine-1-carbonyl)phenyl)cyclopropanecarboxamide]"
8,63.1 to 251,"CCCN1CCN(C(=O)c2ccc(NC(=O)C3CC3)cc2N2CCCCCC2)CC1 [Example 36, N-(3-(azepan-1-yl)-4-(4-propylpiperazine-1-carbonyl)phenyl)cyclopropanecarboxamide]"
9,63.1 to 251,"O=C(Nc1ccc(C(=O)N2CCn3cccc3C2)c(N2CCCCCC2)c1)C1CC1 [Example 39, N-(3-(azepan-1-yl)-4-(1,2,3,4-tetrahydropyrrolo[1,2-a]pyrazine-2-carbonyl)phenyl) cyclopropane carboxamide]"
10,316 to 1000,"O=C(Nc1ccc(C(=O)N2CCN3CCCC3C2)c(N2CCCCCC2)c1)C1CC1 (stereo not drawn) [Example 40, N-[3-(azepan-1-yl)-4-{octahydropyrrolo[1,2-a]pyrazine-2-carbonyl}phenyl] Cyclopropanecarboxamide]"
11,1260 to 6310,"O=C(NCc1cccnc1)c1ccc(NC(=O)C2CC2)cc1N1CCCCCC1 [Example 44, 2-(azepan-1-yl)-4-(cyclopropanecarbonylamino)-N-(pyridin-3-ylmethyl)benzamide]"
12,316 to 1000,"O=C(Nc1ccc(C(=O)N2CCOCC2)c(N2CCCCCC2)c1)C1CC1 [Example 45, N-(3-(azepan-1-yl)-4-(morpholine-4-carbonyl)phenyl)cyclopropanecarboxamide]"
13,316 to 1000,"O=C(Nc1ccc(C(=O)N2CCN(c3ccccn3)CC2)c(N2CCCCCC2)c1)C1CC1 [Example 46, N-(3-(azepan-1-yl)-4-(4-(pyridin-2-yl)piperazine-1-carbonyl)phenyl) Cyclopropanecarboxamide]"
14,63.1 to 251,"CN1CCN(C(=O)c2ccc(NC(=O)C3CC3)cc2N2CCCCCC2)CC1 [Example 49, N-(3-(azepan-1-yl)-4-(4-methylpiperazine-1-carbonyl)phenyl)cyclopropanecarboxamide]"
15,63.1 to 251,"O=C(Nc1ccc(C(=O)N2CCN(Cc3ccccc3)CC2)c(N2CCCCCC2)c1)C1CC1 [Example 50, N-(3-(azepan-1-yl)-4-(4-benzylpiperazine-1-carbonyl)phenyl)cyclopropanecarboxamide]"
16,63.1 to 251,"O=C(Nc1ccc(C(=O)N2CCN(c3cccnc3)CC2)c(N2CCCCCC2)c1)C1CC1 [Example 51, N-(3-(azepan-1-yl)-4-(4-(pyridin-3-yl)piperazine-1-carbonyl)phenyl) Cyclopropanecarboxamide]"
17,63.1 to 251,"O=C(Nc1ccc(C(=O)N2CCN(c3ccccc3)CC2)c(N2CCCCCC2)c1)C1CC1 [Example 52, N-(3-(azepan-1-yl)-4-(4-phenylpiperazine-1-carbonyl)phenyl)cyclopropanecarboxamide]"
18,316 to 1000,"O=C(Nc1ccc(C(=O)N2CCN(C3CCCC3)CC2)c(N2CCCCCC2)c1)C1CC1 [Example 53, N-[3-(azepan-1-yl)-4-(4-cyclopentylpiperazine-1-carbonyl)phenyl]cyclopropanecarboxamide]"
19,316 to 1000,"CC1CN(C(=O)c2ccc(NC(=O)C3CC3)cc2N2CCCCCC2)CCN1C (stereo not drawn) [Example 55, N-[3-(azepan-1-yl)-4-(3,4-dimethylpiperazine-1-carbonyl)phenyl]cyclopropanecarboxamide]"
20,1260 to 6310,"O=C(Nc1ccc(C(=O)N2CCN(c3ccncc3)CC2)c(N2CCCCCC2)c1)C1CC1 [Example 57, N-[3-(azepan-1-yl)-4-(4-pyridin-4-ylpiperazine-1-carbonyl)phenyl]cyclopropanecarboxamide]"
